Data set [1] can be described thus: Aqueous solubility of the drug. Format: physicochemical.
Data set [2] can be described thus: In vitro dissolution test (microcentrifuge, PBS pH 6.5). Format: physicochemical. Conditions: PBS pH 6.5, 290 mOsm/kg, 37° C., 3000 μg/mL Drug 3 if all dissolved; Dispersion 4 before secondary drying; crystalline drug alone. The method, then: A sample of Dispersion 4 was evaluated before and after secondary drying in an in vitro dissolution test to determine the effect of drying on concentration enhancement. For this test, a sufficient amount of Dispersion 4 was added to microcentrifuge test tubes so that the concentration of Drug 3 would have been 3000 μg/mL had all of the drug had dissolved. The test was performed in duplicate. The tubes were placed in a 37° C. temperature-controlled chamber, and 1.8 mL PBS at pH 6.5 and 290 mOsm/kg was added to each tube. The samples were mixed using a vortex mixer for about 60 seconds. The samples were centrifuged at 13,000 G at 37° C. for 1 minute. The resulting supernatant solution was then sampled and diluted 1:6 (by volume) with methanol and then analyzed by high performance liquid chromatography (HPLC). The contents of each tube were mixed on the vortex mixer and allowed to stand undisturbed at 37° C. until the next sample was taken. Samples were collected at 4, 10, 20, 40, 90, and 1200 minutes. For comparison, crystalline Drug 3 alone was tested using the same procedures.
The concentrations of drug obtained in these samples were used to determine the maximum concentration of drug (MDC90) and the area under the concentration-versus-time curve (AUC90) during the initial 90 minutes.

Values after ≈ are worked out from the molar mass of the structure shown.

One may read the solubility as the dissolved amount per volume that the medium holds. The molecule `O=C(N[C@@H](Cc1ccccc1)[C@H](O)C(=O)N1C[C@@H](O)[C@@H](O)C1)c1cc2cc(Cl)ccc2[nH]1` [Drug 1, 5-chloro-1H-indole-2-carboxylic acid [(1S)-benzyl-(2R)-hydroxy-3-((3R,4S)-dihydroxy-pyrrolidin-1-yl-)-3-oxypropyl]amide] came in with a solubility in data set [1] of about 80 µg/mL (≈ 175 µM).

In the case of `C=CCNC(=O)[C@H]1N(C(=O)[C@@H](O)[C@H](Cc2ccccc2)NC(=O)c2cccc(O)c2C)CSC1(C)C` [Drug 3, (4R)—N-allyl-3-{(2S,3S)-2-hydroxy-3-[(3-hydroxy-2-methylbenzoyl)amino]-4-phenylbutanoyl}-5,5-dimethyl-1,3-thiazolidine-4-carboxamide], the solubility in data set [1] is about 1600 µg/mL (≈ 3130 µM). In addition, in data set [2], the “AUC90 (area under the concentration-versus-time curve during the initial 90 minutes)” value turned out to be 9200 µg·min/mL and the “MDC90 (maximum concentration of drug during the initial 90 minutes)” value amounted to 112 µg/mL.

On to `CCOC(=O)N1c2ccc(C(F)(F)F)cc2[C@@H](N(Cc2cc(C(F)(F)F)cc(C(F)(F)F)c2)C(=O)OC)C[C@H]1CC` [Drug 2, torcetrapib, reference compound], for which the solubility in data set [1] is under 0.1 µg/mL.

(Values after US8834929B2, “Drying of drug-containing particles” (Bend Research, Inc., priority 2006, dated 2014).)
